# Results taken from patent US9957271B2, “Substituted bicyclic aza-heterocycles and analogues as sirtuin modulators” (GlaxoSmithKline, LLC, priority 2012, dated 2018).
# Legend:
# SIRT1 [1] = target: T1, SIRT1 (Homo sapiens, UniProt Q96EB6); test: TAMRA based mass spectrometry assay of SIRT1 activity; assay type: biochemical; conditions: for Emax: read-out: TAMRA % Fold Act
# T1 sequence (Q96EB6 1-747): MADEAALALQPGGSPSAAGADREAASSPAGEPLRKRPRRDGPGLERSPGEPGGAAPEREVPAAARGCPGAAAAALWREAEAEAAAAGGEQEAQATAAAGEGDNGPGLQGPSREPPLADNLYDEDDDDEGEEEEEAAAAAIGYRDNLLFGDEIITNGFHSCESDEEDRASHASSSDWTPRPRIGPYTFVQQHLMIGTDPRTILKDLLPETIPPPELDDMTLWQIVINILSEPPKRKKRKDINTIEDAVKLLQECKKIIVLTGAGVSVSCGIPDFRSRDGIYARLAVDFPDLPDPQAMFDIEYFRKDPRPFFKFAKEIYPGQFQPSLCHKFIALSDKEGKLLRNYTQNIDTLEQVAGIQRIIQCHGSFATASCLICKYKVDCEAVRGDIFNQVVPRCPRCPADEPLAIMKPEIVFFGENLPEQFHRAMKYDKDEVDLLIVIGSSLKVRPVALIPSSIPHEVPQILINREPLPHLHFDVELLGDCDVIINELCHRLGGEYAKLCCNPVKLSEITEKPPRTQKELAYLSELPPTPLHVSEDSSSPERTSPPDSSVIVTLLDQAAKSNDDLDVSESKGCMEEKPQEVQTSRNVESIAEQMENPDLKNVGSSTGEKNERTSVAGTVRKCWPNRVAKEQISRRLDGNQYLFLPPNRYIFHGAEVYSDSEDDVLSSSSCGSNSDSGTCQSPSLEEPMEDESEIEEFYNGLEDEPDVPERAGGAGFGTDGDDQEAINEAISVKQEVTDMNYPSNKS
# Outline: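 Recombinant N-terminal His-tagged human SIRT1 (10 nM, E. coli) incubated 25 min at 25 °C with 0.5 μM 5TMR-labelled p53-derived acetyl-peptide and 120 μM βNAD+ in Tris-acetate pH 8 buffer with DTT and 0.05% BSA, compound at varying concentrations. Stopped with formic acid; deacetylated peptide or OAADPR measured by mass spectrometry relative to DMSO controls.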
# SIRT1 [2] = target: T1, SIRT1; test: Trp mass spectrometry assay of SIRT1 activity; assay type: biochemical; conditions: for Emax: read-out: Trp % Fold Act
# Outline: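 His-tagged SIRT1 expressed in E. coli BL21(DE3), 10 nM, incubated 25 min at 25° C. with 0.5 μM Ac-RHKK(Ac)W-NH2 peptide and 120 μM βNAD+ in 50 mM HEPES pH 7.5, […], 1 mM DTT, 0.05% BSA; formic acid stop. OAADPR or deacetylated peptide measured by mass spectrometry; EC1.5 and percent maximum activation versus DMSO control.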
# [3] = concentration of test compound giving 150% activation of SIRT1, TAMRA peptide substrate
# [4] = percent maximum fold activation of SIRT1, TAMRA peptide substrate
# [5] = concentration of test compound giving 150% activation of SIRT1, Trp peptide substrate
# [6] = percent maximum fold activation of SIRT1, Trp peptide substrate
# [7] = TAMRA assay, concentration giving 150% activation of SIRT1
# [8] = TAMRA assay, percent maximum fold activation
# [9] = Trp assay, concentration giving 150% activation of SIRT1
# [10] = Trp assay, percent maximum fold activation
SMILES,TAMRA EC1.5 (μM) (SIRT1 [1]; [7]),Emax (SIRT1 [1]; [8]),Trp EC1.5 (μM) (SIRT1 [2]; [9]),Emax (SIRT1 [2]; [10]),also measured
O=C(Nc1nc(CN2CCOCC2)cs1)c1cnc2ccc(-c3ccccc3C(F)(F)F)nn12 [Compound 20],–,–,–,–,TAMRA EC1.5 (μM) (SIRT1 [1]; [3]): A (EC1.5<1 μM); Emax (SIRT1 [1]; [4]): ≥ 350%; Trp EC1.5 (μM) (SIRT1 [2]; [5]): B (EC1.5 1-25 μM); Emax (SIRT1 [2]; [6]): < 350%
Cc1nc2c(C)cc(-c3ccccc3C(F)(F)F)nn2c1C(=O)Nc1ccnc(C(C)C)n1 [Compound 730],A (EC1.5<1 μM),≥ 350%,A (EC1.5<1 μM),≥ 350%,–
O=C(Nc1cnc2ccc(-c3ccccc3C(F)(F)F)nn12)c1cccc(O)n1 [Compound 467],–,–,–,–,"TAMRA EC1.5 (SIRT1 [1]; TAMRA peptide substrate, concentration giving 150% activation of SIRT1): B (EC1.5 1-25 μM); Emax (SIRT1 [1]; TAMRA peptide substrate, percent maximum fold activation): ≥ 350%; Trp EC1.5 (SIRT1 [2]; Trp peptide substrate, concentration giving 150% activation of SIRT1): B (EC1.5 1-25 μM); Emax (SIRT1 [2]; Trp peptide substrate, percent maximum fold activation): < 350%"
O=C(Nc1cnccn1)c1cnc2ccc(-c3ccccc3Cl)nn12 [Compound 119],–,–,–,–,TAMRA EC1.5 (μM) (SIRT1 [1]; [3]): B (EC1.5 1-25 μM); Emax (SIRT1 [1]; [4]): < 350%; Trp EC1.5 (μM) (SIRT1 [2]; [5]): C (EC1.5>25 μM); Emax (SIRT1 [2]; [6]): < 350%
Cc1cc(-c2ccccc2C(F)(F)F)nn2c(C(=O)Nc3ccnc(O[C@@H]4CCOC4)n3)cnc12 [Compound 598],A (EC1.5<1 μM),≥ 350%,A (EC1.5<1 μM),≥ 350%,–
COc1ccc(NC(=O)c2c(C)nc3ccc(-c4cccc(F)c4)nn23)nn1 [Compound 761],C (EC1.5>25 μM),< 350%,A (EC1.5<1 μM),< 350%,–
Cc1cc(NC(=O)c2cnc3ccc(-c4ccccc4F)nn23)ccn1 [Compound 242],B (EC1.5 1-25 μM),< 350%,B (EC1.5 1-25 μM),< 350%,–
O=C(Nc1cccc(N2CCC2)n1)c1cnc2ccc(-c3ccccc3C(F)F)nn12 [Compound 51],–,–,–,–,TAMRA EC1.5 (μM) (SIRT1 [1]; [3]): A (EC1.5<1 μM); Emax (SIRT1 [1]; [4]): ≥ 350%; Trp EC1.5 (μM) (SIRT1 [2]; [5]): B (EC1.5 1-25 μM); Emax (SIRT1 [2]; [6]): ≥ 350%

# The next lines start with results.
TAMRA EC1.5 (μM) (SIRT1 [1]; [7]),Emax (SIRT1 [1]; [8]),Trp EC1.5 (μM) (SIRT1 [2]; [9]),Emax (SIRT1 [2]; [10]),SMILES,also measured
B (EC1.5 1-25 μM),≥ 350%,C (EC1.5>25 μM),< 350%,Cc1cnc(C(=O)Nc2c(C)nc3ccc(-c4ccccc4C(F)(F)F)nn23)s1 [Compound 381],–
A (EC1.5<1 μM),≥ 350%,C (EC1.5>25 μM),< 350%,O=C(Nc1cnc2ccc(-c3ccccc3Cl)nn12)c1ccccn1 [Compound 287],–
A (EC1.5<1 μM),≥ 350%,A (EC1.5<1 μM),≥ 350%,O=C(Nc1ccnc(O)c1)c1cnn2ccc(-c3ccccc3OC(F)(F)F)nc12 [Compound 779],–
B (EC1.5 1-25 μM),< 350%,C (EC1.5>25 μM),< 350%,N#Cc1ccccc1-c1ccc2ncc(NC(=O)c3cscn3)n2n1 [Compound 332],–
A (EC1.5<1 μM),≥ 350%,B (EC1.5 1-25 μM),< 350%,CC(C)c1nccc(C(=O)Nc2cnn3ccc(-c4ccccc4C(F)(F)F)nc23)n1 [Compound 796],–
